Assay results published in ChEMBL document CHEMBL1201862, “PubChem BioAssay data set” (2004).
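All cell lines were grown in 96-well plates and treated with compound for 48 hours. Abbreviation: GI50, concentration required for 50% inhibition of growth.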 Activity calls are given as the source filed them. Rule as the data show it: active = GI50 up to about 1.1 µM and inactive = higher.

Key:
Assay in all cases: inhibition of tumour cell growth, NCI panel, 48 h
A498 = system: A498
A549 = system: A549
DU-145 = system: DU-145
EKVX = system: EKVX
K562 = system: K562
MDA-MB-231 = system: MDA-MB-231
MDA-MB-435 = system: MDA-MB-435
MDA-N = system: MDA-N
Malme-3M = system: Malme-3M
OVCAR-5 = system: OVCAR-5
OVCAR-8 = system: OVCAR-8
PC-3 = system: PC-3
SF-295 = system: SF-295
SK-MEL-28 = system: SK-MEL-28
TK-10 = system: TK-10
RXF 393 = system: RXF 393

Compound | GI50 (A498) | GI50 (A549) | GI50 (DU-145) | GI50 (EKVX) | GI50 (K562) | GI50 (MDA-MB-231) | GI50 (MDA-MB-435) | GI50 (MDA-N) | GI50 (Malme-3M) | GI50 (OVCAR-5) | GI50 (OVCAR-8) | GI50 (PC-3) | GI50 (SF-295) | GI50 (SK-MEL-28) | GI50 (TK-10) | GI50 (RXF 393)
CC(C)=C[C@@H]1C[C@H](C)[C@H]2CC[C@H](C)[C@H]3C(=O)C(O)=C(C)C(=O)[C@]123 | > 100 µM (inactive) | 57.8 µM (inactive) | > 100 µM (inactive) | > 100 µM (inactive) | > 100 µM (inactive) | > 100 µM (inactive) | > 100 µM (inactive) | > 100 µM (inactive) | > 100 µM (inactive) | > 100 µM (inactive) | > 100 µM (inactive) | 27.4 µM (inactive) | > 100 µM (inactive) | > 100 µM (inactive) | > 100 µM (inactive) | –
CC(Cc1ccc2c(c1)OCO2)N(C)C(=O)C1=CCN(C)CC1 (stereo not given) | – | > 100 µM (inactive) | > 100 µM (inactive) | > 100 µM (inactive) | > 100 µM (inactive) | > 100 µM (inactive) | > 100 µM (inactive) | > 100 µM (inactive) | > 100 µM (inactive) | > 100 µM (inactive) | > 100 µM (inactive) | > 100 µM (inactive) | > 100 µM (inactive) | > 100 µM (inactive) | > 100 µM (inactive) | > 100 µM (inactive)
COc1cccc(CCn2c(N)c(C#N)c3ccc([N+](=O)[O-])cc3c2=O)c1 | > 100 µM (inactive) | > 46.5 µM (inactive) | > 46.5 µM (inactive) | > 31.6 µM (inactive) | 0.283 µM (active) | > 46.5 µM (inactive) | 0.22 µM (active) | 0.256 µM (active) | – | > 31.6 µM (inactive) | > 46.5 µM (inactive) | > 46.5 µM (inactive) | > 31.6 µM (inactive) | > 100 µM (inactive) | > 46.5 µM (inactive) | –
COc1cc([C@@H]2c3cc4c(cc3[C@@H](Nc3ccc(Cl)cc3C(=O)c3ccccc3Cl)[C@H]3COC(=O)[C@H]23)OCO4)cc(OC)c1OC | 0.0989 µM (active) | 0.34 µM (active) | 0.314 µM (active) | 57.9 µM (inactive) | 0.106 µM (active) | 0.39 µM (active) | 0.0661 µM (active) | 0.0873 µM (active) | 0.143 µM (active) | – | 0.152 µM (active) | 0.16 µM (active) | 0.121 µM (active) | 0.333 µM (active) | 39.7 µM (inactive) | 0.144 µM (active)
O=S(=O)(N/C(=N\O)Nc1ccc(Cl)cc1)c1cc2ccccc2s1 | – | 18.7 µM (inactive) | 20.9 µM (inactive) | 12.9 µM (inactive) | 27.9 µM (inactive) | 17.3 µM (inactive) | 16.6 µM (inactive) | 20.9 µM (inactive) | 15.6 µM (inactive) | 15.2 µM (inactive) | 16.8 µM (inactive) | 14.5 µM (inactive) | 20.1 µM (inactive) | 19.4 µM (inactive) | 19.4 µM (inactive) | 15.1 µM (inactive)
CC1=CCC2CC1C(C(=O)c1c[nH]c3ccccc13)=NC2(C)C (stereo not given) | > 100 µM (inactive) | 61 µM (inactive) | > 100 µM (inactive) | 33.3 µM (inactive) | 34 µM (inactive) | 51.9 µM (inactive) | 47.8 µM (inactive) | > 10 µM (inactive) | > 100 µM (inactive) | > 100 µM (inactive) | 56.5 µM (inactive) | 30.8 µM (inactive) | – | > 100 µM (inactive) | – | –
CC(=O)N(C)SCC(NC(=O)C(Cc1ccccc1)NC(=O)OCc1ccccc1)C(=O)NC(Cc1ccccc1)C(=O)NC(Cc1cn(C=O)c2ccccc12)C(=O)NC(CCCCNC(=O)OCc1ccccc1)C(=O)NC(C(=O)NC(CSN(C)C(C)=O)C(=O)NO)C(C)OCc1ccccc1 (stereo not given) | – | > 100 µM (inactive) | > 100 µM (inactive) | > 100 µM (inactive) | > 100 µM (inactive) | > 100 µM (inactive) | > 100 µM (inactive) | > 100 µM (inactive) | > 100 µM (inactive) | > 100 µM (inactive) | > 100 µM (inactive) | > 100 µM (inactive) | > 100 µM (inactive) | > 100 µM (inactive) | > 100 µM (inactive) | > 100 µM (inactive)
Cc1ccc(S(=O)(=O)N(c2ccccc2F)C2CCCCC2O)cc1 (stereo not given) | 38.1 µM (inactive) | 35.2 µM (inactive) | 24.9 µM (inactive) | 35.1 µM (inactive) | 42.2 µM (inactive) | 77.6 µM (inactive) | 19.4 µM (inactive) | 19.9 µM (inactive) | 58.7 µM (inactive) | > 100 µM (inactive) | 78 µM (inactive) | 35.4 µM (inactive) | > 100 µM (inactive) | > 100 µM (inactive) | 97.1 µM (inactive) | –
CCC(Sc1cc(Cl)c(C)cc1S(=O)(=O)Nc1nc(N)nc(N(C)C)n1)C(=O)O (stereo not given) | > 10 µM (inactive) | > 10 µM (inactive) | > 10 µM (inactive) | > 10 µM (inactive) | > 10 µM (inactive) | – | – | > 10 µM (inactive) | > 10 µM (inactive) | > 10 µM (inactive) | > 10 µM (inactive) | > 10 µM (inactive) | > 10 µM (inactive) | > 10 µM (inactive) | > 10 µM (inactive) | > 10 µM (inactive)
COc1ccc(NC2Oc3cc4c(cc3C(c3cc(OC)c(O)c(OC)c3)C2C)OCO4)cc1 (stereo not given) | 6.79 µM (inactive) | 3.56 µM (inactive) | 7.4 µM (inactive) | – | 2.69 µM (inactive) | 2.65 µM (inactive) | 0.406 µM (active) | 1.36 µM (inactive) | 5.38 µM (inactive) | 7.66 µM (inactive) | 4.45 µM (inactive) | 4.13 µM (inactive) | 4.78 µM (inactive) | 3.73 µM (inactive) | 2.23 µM (inactive) | 7.73 µM (inactive)
O=C1OC(c2ccccc2Br)=N/C1=C/c1ccccc1 | > 100 µM (inactive) | 29.6 µM (inactive) | > 100 µM (inactive) | > 100 µM (inactive) | 63 µM (inactive) | 40.7 µM (inactive) | 29.2 µM (inactive) | 25.4 µM (inactive) | 19.6 µM (inactive) | 40.2 µM (inactive) | 21.6 µM (inactive) | > 100 µM (inactive) | 34.1 µM (inactive) | 41.8 µM (inactive) | 32.8 µM (inactive) | –
NC(=O)c1oc([N+](=O)[O-])c(-c2ccccc2)c1-c1ccccc1 | – | 21.1 µM (inactive) | 26.9 µM (inactive) | 17.6 µM (inactive) | 14.6 µM (inactive) | 13.5 µM (inactive) | 14.9 µM (inactive) | – | 3.49 µM (inactive) | 26.1 µM (inactive) | 24.8 µM (inactive) | 15.5 µM (inactive) | 15.8 µM (inactive) | 44 µM (inactive) | 28.6 µM (inactive) | 31.6 µM (inactive)
CCC1C(=O)C[C@H]2[C@@H]3C(O)CC4=CC(=O)CC[C@]4(C)[C@H]3CC[C@]12C (stereo not given in full) | > 50 µM (inactive) | > 50 µM (inactive) | > 50 µM (inactive) | > 50 µM (inactive) | > 50 µM (inactive) | > 50 µM (inactive) | > 50 µM (inactive) | – | 25.8 µM (inactive) | > 50 µM (inactive) | > 50 µM (inactive) | > 50 µM (inactive) | > 50 µM (inactive) | > 50 µM (inactive) | > 50 µM (inactive) | –
C=C1N(C)c2ccc(S(=O)(=O)c3ccc4c(c3)C(C)(C)C(=C)N4C)cc2C1(C)C | 37.2 µM (inactive) | 28.6 µM (inactive) | 60 µM (inactive) | 30.9 µM (inactive) | – | 33.6 µM (inactive) | 30.8 µM (inactive) | 39 µM (inactive) | 19.5 µM (inactive) | 83.9 µM (inactive) | 27.1 µM (inactive) | 35.5 µM (inactive) | 22.8 µM (inactive) | > 100 µM (inactive) | 36.1 µM (inactive) | –
O=C(Nc1nc2c(=O)[nH]cnc2s1)c1ccccc1 | 83.4 µM (inactive) | 81.7 µM (inactive) | 73.1 µM (inactive) | > 100 µM (inactive) | 62.5 µM (inactive) | – | 88.5 µM (inactive) | – | > 100 µM (inactive) | > 100 µM (inactive) | > 100 µM (inactive) | > 100 µM (inactive) | > 100 µM (inactive) | > 100 µM (inactive) | 68.9 µM (inactive) | 55.7 µM (inactive)
O=C1NC(=O)C(CC2CCCCCCCCCCC2=O)C(=O)N1 (stereo not given) | – | > 100 µM (inactive) | > 100 µM (inactive) | > 100 µM (inactive) | – | > 100 µM (inactive) | > 100 µM (inactive) | > 100 µM (inactive) | – | > 100 µM (inactive) | > 100 µM (inactive) | > 100 µM (inactive) | > 100 µM (inactive) | > 100 µM (inactive) | > 100 µM (inactive) | > 100 µM (inactive)
O=C(NS(=O)(=O)OCC(Cl)(Cl)Cl)SCCC(F)(F)C(F)(F)C(F)(F)C(F)(F)C(F)(F)C(F)(F)F | 31 µM (inactive) | 30.2 µM (inactive) | 46.9 µM (inactive) | 18.3 µM (inactive) | 28.6 µM (inactive) | 25.4 µM (inactive) | 23.8 µM (inactive) | – | 17.9 µM (inactive) | 18.6 µM (inactive) | 51.3 µM (inactive) | 16.5 µM (inactive) | 20.2 µM (inactive) | 22.7 µM (inactive) | 29.5 µM (inactive) | 22.5 µM (inactive)
CC1(C)C2CCC1(C)[C@H](O)[C@H]2Nc1cc(C(F)(F)F)cc(C(F)(F)F)c1 (stereo not given in full) | > 100 µM (inactive) | 3.7 µM (inactive) | 3.66 µM (inactive) | 3.83 µM (inactive) | 2.79 µM (inactive) | 4.53 µM (inactive) | 3.42 µM (inactive) | – | 3.27 µM (inactive) | 7.41 µM (inactive) | 3.21 µM (inactive) | 2.47 µM (inactive) | 2.37 µM (inactive) | 1.74 µM (inactive) | 3.15 µM (inactive) | 2.85 µM (inactive)
